Measured values: patent publication US9878054B2, “Polypeptide and lipophilic moiety conjugate compositions, formulations, and uses related thereto” (Tufts Medical Center, Inc., priority 2012, dated 2018)
Where a SMILES comes first, the peptide text is derived from it. The star is where a group is joined. Palmitoyl = CCCCCCCCCCCCCCCC(=O)*

Columns and labels:
PAR1 = molecular target: T1, PAR1 (Homo sapiens, UniProt P25116); assay: Human platelet aggregation, PAR1 agonist SFLLRN; assay type: cell-based; conditions: gel filtered human platelets, SFLLRN 2.5 μM
T1 construct: Platelets were isolated from platelet rich plasma (PRP) using Sepharose 2B columns; endogenous in cells; host or cells: human platelets from healthy donors, gel-filtered
T1 sequence (P25116 22-425): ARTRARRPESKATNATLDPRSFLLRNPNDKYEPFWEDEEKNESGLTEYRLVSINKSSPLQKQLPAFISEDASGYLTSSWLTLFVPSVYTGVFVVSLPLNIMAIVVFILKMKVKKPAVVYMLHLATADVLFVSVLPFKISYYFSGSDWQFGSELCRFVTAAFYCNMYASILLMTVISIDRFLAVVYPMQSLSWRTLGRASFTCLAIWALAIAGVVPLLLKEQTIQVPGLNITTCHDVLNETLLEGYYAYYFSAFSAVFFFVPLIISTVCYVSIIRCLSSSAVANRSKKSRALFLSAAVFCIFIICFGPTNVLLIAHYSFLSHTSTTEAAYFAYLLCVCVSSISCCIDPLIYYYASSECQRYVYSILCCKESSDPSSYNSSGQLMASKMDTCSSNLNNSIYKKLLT
Description: (§1) A, Depiction of the mechanism of action of the cell-penetrating PZ-128 pepducin compound targeting the third intracellular loop (red) of PAR1. B, The NMR structure of PZ-128 was determined by simulated annealing methods using 210 distance restraints and included restraints to the proximal 3 hydrocarbons of the lipid. […] D, PZ-128 inhibits PAR1-dependent platelet aggregation. Gel filtered human platelets were treated with various concentrations of PZ-128 and then challenged with the PAR1 agonist SFLLRN (2.5 μM), 20 μM ADP, 200 μM AYPGKF or 1 mg/ml Ristocetin. E, Human platelets were treated with 3 μM PZ-128, 3 μM RWJ-56110, or 5% dextrose vehicle before the addition of various concentrations of thrombin (n=3-5).
(§2) PZ-128 also markedly right-shifted thrombin-induced aggregation by 5-fold. By comparison, the small molecule RWJ-56110 which antagonizes PAR1 at the extracellular ligand-binding site gave a 2-fold right shift in the thrombin activation curve of human platelets.
(§3) Whole blood from healthy donors was collected into a 30 ml syringe containing sodium citrate (0.4% vol/vol final). Platelets were isolated from platelet rich plasma (PRP) using Sepharose 2B columns in modified PIPES buffer.

[1] = system: human whole blood (red blood cell lysis); assay: Hemolysis of human whole blood; assay type: cell-based; conditions: up to 3.3 mg/mL in 5% dextrose, blood mixed 2:1; 40 min at 37° C.
Description: Fresh human whole blood (anticoagulated with 10 U heparin/mL) was mixed 2:1 with the various indicated dilutions of micelles of PZ-128 in 5% dextrose, incubated for 40 min at 37° C., and red blood cell lysis quantified by hemoglobin (Hb) release into the supernatant.
The PZ-128 micelle particles were solubilized in 5% dextrose/water at 10 mg/mL concentration and serially diluted with additional 5% dextrose/water to make stock solutions of 0.75, 1.5, 2.25, 3.0, 3.3 and 4.0 mg/mL PZ-128 in 5% dextrose water. Fresh human whole blood (anticoagulated with 10 U heparin/mL) was mixed 2:1 with the various dilutions of PZ-128 in 5% dextrose, incubated for 40 min at 37° C., and red blood cell lysis quantified by hemoglobin (Hb) release into the supernatant. […] The final pH of the PZ-128 micelles in 5% dextrose/water ranged from 6.75 to 7.13 at 1.25-10 mg/mL at room temperature.

P2Y12 and P2Y1 = assay: Baboon ex vivo platelet aggregation, ADP; assay type: in vivo; conditions: any dose, any time point
Description: A-C, Male baboons (10-12 kg) were administered 1, 3 or 6 mg/kg PZ-128, or 5% dextrose USP vehicle by iv infusion and blood collected into 100 μg/ml PPACK anticoagulant at 0, 1, 2, 6, or 24 h time points. Light transmission platelet aggregometry was performed with platelet rich plasma with the indicated agonists (SFLLRN for PAR1, AYPGKF for PAR4 and ADP for P2Y12 and P2Y1). Data are reported as mean±SD (n=3-7) relative to time 0 controls (0%) and were analyzed by repeated measures one-way ANOVA with Bonferroni post-test correction; *P<0.05, **P<0.01 relative to time 0. Global P values were >0.05 for 1 mg/kg, 0.004 for 3 mg/kg, <0.0001 for 6 mg/kg. D, Pharmacokinetics of 3 and 6 mg/kg 45-min iv infusions of PZ-128 in male baboons. Plasma PZ-128 levels were measured by LC/MS/MS at 9 sequential time points: baseline, 15 min, 30 min, 1 h, 2 h, 4 h, 8 h, 24 h and 48 h after the start of infusion. Open symbols indicated plasma concentrations that were under the measurement threshold (5 ng/ml).
The anti-platelet effects of PZ-128 micelles were next examined in baboons at various time points after receiving different doses of intravenous infusions. […]
Non-terminal thrombosis and platelet aggregation studies were performed on 12 healthy male baboons (Papio anubis) weighing 9-12 kg at the Oregon National Primate Research Center (ONPRC). […] Platelet counts and hematocrit were measured immediately. […]

[2] = system: human platelets (thrombin); assay: Thrombin-induced aggregation of human platelets; assay type: cell-based; conditions: 3 μM compound
Description: as §1, §2, §3

In the case of `CCCCCCCCCCCCCCCC(=O)N[C@@H](CCCCN)C(=O)N[C@@H](CCCCN)C(=O)N[C@@H](CO)C(=O)N[C@@H](CCCNC(=N)N)C(=O)N[C@@H](C)C(=O)N[C@@H](CC(C)C)C(=O)N[C@@H](Cc1ccccc1)C(N)=O` [PZ-128, palmitate-KKSRALF-NH2] (Palmitoyl-KKSRALF-NH2), the “Extent of inhibition of human platelet aggregation in response to SFLLRN” value (PAR1) is reported as “completely inhibited”, the IC50 (PAR1; read-out: IC50, inhibition of human platelet aggregation in response to PAR1 agonist SFLLRN) is reported as 500 nM and the “Hemolysis of human whole blood (Hb release)” value [1] is reported as “no significant hemolysis”. The “Inhibition of ADP response ex vivo” value (P2Y12 and P2Y1) was “no inhibition” and the “Right shift of thrombin-induced aggregation curve” value [2] was 5 fold.
